Experimental data as given in the supplement of paper PMC8882468.

What was measured:
Assay in all cases: CTG-3D luminescence at 96 h relative to day-0 seeding control (ratio to day 0); higher = more growth / less cytotoxicity; PDxO 3D drug screen, 96 h, CTG-3D normalised to day-0 seeding control.
[1] = system: HCI-008 (organoid from a HER2-enriched breast cancer xenograft)
[2] = system: HCI-019 (organoid from a triple-negative breast cancer xenograft)
[3] = system: HCI-005.E2 (organoid from a breast cancer xenograft with a HER2-positive history)
[4] = system: HCI-017.E2 (organoid from an ER-positive breast cancer xenograft)
[5] = system: HCI-025 (organoid from a breast cancer xenograft)
[6] = system: MDA-MB-231
[7] = system: HCI-016 (organoid from a triple-negative breast cancer xenograft)

CCN1CCN(Cc2ccc(Nc3ncc(F)c(-c4cc(F)c5nc(C)n(C(C)C)c5c4)n3)nc2)CC1 [abemaciclib]
CTG-3D luminescence at 96 h
Conditions	12.5 pM	0.00025 µM	0.005 µM	0.1 µM	1 µM	10 µM	100 µM	625 fM
[1], days in culture: 228	1.42	1.63	1.38	1.89	1.86	1.53	0.0137	1.79
[1], days in culture: 244	1.57	2.05	1.87	2.13	2.12	2.51	0.0231	2.52
[2], days in culture: 110	2.26	1.44	1.96	2.43	1.42	0.433	0.016	2.64
[2], days in culture: 131	2.45	3.28	2.99	4.2	2.75	1.9	0.0216	2.87
[2], days in culture: 152	3.44	2.78	2.45	2.58	2.13	0.0403	0.012	2.48
[4], days in culture: 85	2.84	2.45	2.5	2.52	2.03	1.81	0.0118	3.16
[5], days in culture: 172	3.01	1.55	3.2	2.1	2.55	1.91	0.0181	2.18
[5], days in culture: 209	2.03	1.8	1.98	2.2	2.46	1.27	0.0124	1.49
[5], days in culture: 218	1.37	1.71	1.83	1.55	1.46	1.84	0.0142	1.33
[7], days in culture: 153	2.82	2.09	2.87	1.71	1.14	0.355	0.0128	2.64
[7], days in culture: 172	2.12	1.72	1.43	1.67	1.25	0.322	0.0115	1.34
[7], days in culture: 190	1.98	1.4	1.32	1.35	1.26	0.196	0.00813	1.43
[7], days in culture: 199	1.89	1.75	2.03	1.74	1.21	0.0238	0.00916	1.85

CTG-3D luminescence at 96 h
Conditions	12.5 pM	0.00025 µM	0.005 µM	0.1 µM	1 µM	10 µM	100 µM	625 fM
[3]	1.99	2.57	2.09	1.96	1.61	1.43	0.00876	2.12
[4]	1.858	1.97	2.083	2.11	2.01	1.5	0.00884	2.33
[6]	4.61	4.47	4.69	4.48	4.55	3.73	0.0487	4.67
